Assay results from patent publication US12115222B2, “Compositions and methods for improving the solubility of erectile dysfunction therapeutics” (Villya LLC, priority 2023, dated 2024).
Several values for one entry are separate records, joined by “and”; a condition that tells them apart may be missing. Equal values may be shown once. Read-outs that look alike come from different tables or passages of the source.

What was measured:
[1] = drug alone; cited from earlier work
[2] = Text: After solubilizing the sugar and the compound in ethanol or aqueous ethanol, the ethanol is evaporated for example under a high rotary vacuum. The powder resulting from the evaporation step is then resolubilized (dissolved) in water. Another solvent can be methanol at 80% methanol, 95% (ACS grade) or greater (to 100% methanol) as well as combinations of methanol and ethanol or methanol and water. After solubilizing the sugar and the compound in ethanol or aqueous ethanol, the ethanol is evaporated for example under a high rotary vacuum. The powder resulting from the evaporation step is then resolubilized (dissolved) in water.
Generally, ingredients are deposited into a sealed container with ethanol and vortex-mixed to form a solution. The solution is subjected to centrifugation. The ethanol is evaporated off and the dried mixture was dissolved in water. This mixture is centrifuged again and the supernatant is filtered through a membrane. […] In one embodiment, the admixing process involves dissolving the PSD and sugar in the ethanol while stirring and adjusting the pH as necessary to obtain complete dissolution and a clear reaction mixture. The reaction mixture can then be dried to remove the ethanol. No further water washing or filtering is needed.
In this example, an oven-dried single-neck RB flask equipped with a magnetic stir bar was used. […] The reaction mixture was vigorously stirred at room temperature for 30 min at 20° C. […] The white solid was dried using vacuum drying performed at room temperature and a high vacuum pump for about one hour to remove the ethanol (EtOH) completely using an Edvards Model #RV8 […], a Heidolph type Basis Hei-VAP Value, No. 560-00000-0101. The high vacuum pump was connected to a cooling trap and the trap was connected to the RB flask. Vacuum strength was about 1 mm Hg.
The white foamy solid was dried over a high vacuum at room temperature for an additional hour to remove the water completely, by ascertaining changes in weight loss. Drying continued until further weight loss was not observed.
Step 1: In an oven-dried single neck RB flask equipped with magnetic stir and septa (flask cap), 5 mg sildenafil (0.01054 mmol) and 16.95 mg stevioside (1:2 molar ratio) were weighed into the RB flask and dissolved in 85% ethanol (˜2.0 mL, denatured 85% ethanol) at ambient temperature. The reaction mixture was vigorously stirred at room temperature for 30 min. […] The white solid was dried over a high vacuum for an hour to remove the ethanol completely (no further reduction in weight was observed).
Step 2: The obtained white solid was then dissolved in 2.0 mL water at room temperature in an RB flask with a magnetic stir bar. The reaction mixture was stirred at ambient temperature for 30 min. […] The white foamy solid was dried over a high vacuum at room temperature for an additional hour to remove the water completely. The weight of the flask was checked while drying until no further weight loss was observed.

[3] = system: S. mansoni newly transformed schistosomula (NTS)
[4] = Stability of the dissolved complex on standing (precipitate); assay type: physicochemical
Description: […] […] The clear solution was then dried as described in Step 2 in Example 8. The 10 mg dried solid was then dissolved in 0.6 mL D20.
For NMR, 10 mg of the solid sample obtained was dissolved in 0.6 mL D20. The dissolved 10 mg sample again produced a clear and homogeneous solution. […] The complex in D20 remained stable for 9 days without any observable precipitate forming.

[5] = Non-caloric sugar solubility in water and 95% ethanol
Description: In this experiment, the following sugars were compared for solubility: rubusoside, dulcoside A, rebaudioside B, dulcoside B, and rebaudioside D. Approximately 5.0 mg of each sugar was attempted to be dissolved in 0.6 mL water and vortexed for 2 minutes at room temperature.
In another experiment, 50 mg stevia was dissolved in either 2.0 mL water or 2.0 mL 95% ethanol.

[6] = cited from earlier work
[7] = approximately 5.0 mg in 0.6 mL water, vortexed 2 minutes, room temperature

O=C(C1CCCCC1)N1CC(=O)N2CCc3ccccc3C2C1 (centres unmarked) [Praziquantel]
Solubility of Praziquantel In Ethanol (95%), without sugar [1]: 9.7 g/100 mL | Solubility of Praziquantel In Water, without sugar [1]: 0.04 g/100 mL | solubility by 1H-NMR [2]: 0.65 | solubility by 1H-NMR analysis [2]: 0.89 | solubility for the drug by 1H-NMR analysis [2]: 1.73 | solubility in 95% ethanol with Dulcoside A [2]: insoluble | solubility in 95% ethanol with rebaudioside B [2]: insoluble | solubility in 95% ethanol with rebaudioside D [2]: insoluble | solubility in water by NMR [2]: only partial solubility | solubility in water in complex with dulcoside B [2]: well soluble | solubility in water with D-fructose (NMR) [2]: did not make praziquantel soluble or more soluble | solubility in water with rebaudioside D [2]: insoluble | 24 hr Exposure LD50 ([3]; 24 hr exposure): 33.5 ± 5.71 µM | 72 hr exposure LD50 ([3]; 72 hr exposure (table)): 24.3 ± 0.67 µM | LD50 ([3]; exposure after 72 hours): 33.9 ± 0.64 µM | time until the water solution became white and turbid ([4]; Example 16, praziquantel:rubusoside 1:2 molar, 0.1 N HCl, pH ~4.7): 15 min

CCCCCCCCCCCCO[C@@H]1O[C@H](CO)[C@@H](O[C@H]2O[C@H](CO)[C@@H](O)[C@H](O)[C@H]2O)[C@H](O)[C@H]1O [n-Dodecyl-β-D-maltoside]
solubility of the sugar in 95% ethanol (observation) ([5]; 50 mg in 2.0 mL 95% ethanol): soluble | solubility of the sugar in water (observation) ([5]; 50 mg in 2.0 mL water): soluble | Sugar Solubility in 95% EtOH [6]: Soluble | Sugar Solubility in Water [6]: 50 mg/mL

CCCc1nn(C)c2c(=O)[nH]c(-c3cc(S(=O)(=O)N4CCN(C)CC4)ccc3OCC)nc12 [Sildenafil, 5-[2-ethoxy-5-(4-methylpiperazin-1-yl)sulfonylphenyl]-1-methyl-3-propyl-6H-pyrazolo[4,3-d]pyrimidin-7-one]
solubility in water by 1H-NMR [2]: 100% | solubility in water by NMR ([2]; 30 min): 100% | time remained in solution in D2O ([4]; Example 14, 1:3 molar with citric acid): 3 days

rebaudioside B
solubility of the sugar in water (observation) [5, 7]: insoluble in water or poorly soluble | Sugar Solubility in 95% EtOH [6]: Poorly soluble | Sugar Solubility in Water [6]: Poorly soluble

O=C(CO)[C@@H](O)[C@H](O)[C@H](O)CO [D-fructose]
solubility of the sugar in 95% ethanol (observation) ([5]; Example 22, 200 mg, 20° C.): not soluble | solubility of the sugar in water (observation) ([5]; Example 22, 200 mg, 20° C.): soluble | Sugar Solubility in 95% EtOH [6]: Insoluble

C=C1C[C@@]23CC[C@H]4[C@@](C)(CCC[C@@]4(C)C(=O)O[C@@H]4O[C@H](CO)[C@@H](O)[C@H](O)[C@H]4O[C@@H]4O[C@H](CO)[C@@H](O)[C@H](O)[C@H]4O)[C@@H]2CC[C@]1(O[C@@H]1O[C@H](CO)[C@@H](O)[C@H](O[C@@H]2O[C@H](CO)[C@@H](O)[C@H](O)[C@H]2O)[C@H]1O[C@@H]1O[C@H](CO)[C@@H](O)[C@H](O)[C@H]1O)C3 [rebaudioside D]
solubility of the sugar in water (observation) [5, 7]: partially soluble | Sugar Solubility in 95% EtOH [6]: Insoluble | Sugar Solubility in Water [6]: 100 mg/ml and 88.56 mM

C=C1C[C@@]23CC[C@H]4[C@@](C)(CCC[C@@]4(C)C(=O)O[C@@H]4O[C@H](CO)[C@@H](O)[C@H](O)[C@H]4O)[C@@H]2CC[C@]1(O[C@@H]1O[C@H](CO)[C@@H](O)[C@H](O)[C@H]1O)C3 [Rubusoside]
solubility of the sugar in water (observation) [5, 7]: No undissolved | Sugar Solubility in 95% EtOH [6]: 10 mg/mL | Sugar Solubility in Water [6]: Soluble
